The values below come from US12358901B2, “KV3 modulators” (priority 2018, dated 2025).

The target in data set [1] is human Kv3.1 channels (hKv3.1) (Homo sapiens, UniProt P48547). As to the kind of experiment: cell-based. Type of data set: cell-based. Particulars: for Kv3.1 pEC50: HEK-hKv3.1 cells, -15 mV voltage step, normalised to 50 microM reference compound; for Kv3.1 max R %: maximum response relative to reference compound (50 microM). The source says:
The ability of the compounds of the invention to modulate the voltage-gated potassium channel subtypes Kv3.3/Kv3.2/Kv3.1 may be determined using the following assay. Analogous methods may be used to investigate the ability of the compounds of the invention to modulate other channel subtypes.
To assess compound effects on human Kv3.1 channels (hKv3.1):
Human embryonic kidney (HEK)-hKv3.1 cell line is generated by transfecting HEK-293 cells with an expression vector with human Kv3.1 (NM_004976.4). Cells are cultured with MEM supplemented with 10% Heat-Inactivated FBS, 2 mM L-glutamine, 1% Penicillin-Streptomycin, and 0.6 mg/ml of Geneticin (G418). HEK-hKv3.1b cells were amplified in T175 cm2 flask at 37° C. with 5% CO2, using MEM amplification medium, containing the G418 selection antibiotic (0.6 mg/ml). Cells were detached every 3-4 days, using DPBS to wash twice the flask, then TrypLE to dislodge the cells, and re-plated at a density of 2-4×10^6 cells/flask.
The day of the experiment, cells are removed from the incubator and the culture medium removed. Cells are washed with 5 ml of Dulbecco's PBS (DPBS) calcium and magnesium free and detached by the addition of 3 ml Versene (Invitrogen, Italy) followed by a brief incubation at 37° C. for 5 minutes. The flask is tapped to dislodge cells and 10 ml of DPBS containing calcium and magnesium is added to prepare a cell suspension. The cell suspension is then placed into a 15 ml centrifuge tube and centrifuged for 2 min at 1200 rpm. After centrifugation, the supernatant is removed and the cell pellet re-suspended in 4 ml of DPBS containing calcium and magnesium using a 5 ml pipette to break up the pellet. Cell suspension volume is then corrected to give a cell concentration for the assay of approximately 3 million cells per ml.
Experiments are conducted at r.t. using IonWorks Quattro™ planar array electrophysiology technology (Molecular Devices Corp.) with PatchPlate™ PPC. Stimulation protocols and data acquisition are carried out using a microcomputer (Dell Pentium 4). Planar electrode hole resistances (Rp) are determined by applying a 10 mV voltage step across each well. These measurements are performed before cell addition. After cell addition and seal formation, a seal test is performed by applying a voltage step from −80 mV to −70 mV for 160 ms. Following this, amphotericin-B solution is added to the intracellular face of the electrode to achieve intracellular access. Cells are held at −70 mV. Leak subtraction is conducted in all experiments by applying 50 ms hyperpolarizing (10 mV) prepulses to evoke leak currents followed by a 20 ms period at the holding potential before test pulses.
For hKv3.2 and hKv3.1, assays from the holding potential of −70 mV, a first test pulse at −15 mV was applied for 100 ms and after 100 ms at −70 mV a second pulse at +40 mV was applied for 50 ms. Cells were then maintained for 100 ms at −100 mV and another pulse from −70 mV to +40 mV (duration 50 ms) was applied to clamp later the voltage at −40 mV during 200 ms
The intracellular solution contains the following (in mM): K-gluconate 100, KCl 54, MgCl2 3.2, HEPES 5, adjusted to pH 7.3 with KOH. Amphotericin-B solution is prepared as 50 mg/ml stock solution in DMSO and diluted to a final working concentration of 0.1 mg/ml in intracellular solution. The external solution is Dulbecco's Phosphate Buffered Saline (DPBS) and contained the following (in mM): CaCl2 0.90, KCl 2.67, KH2PO4 1.47, MgCl·6H2O 0.493, NaCl 136.9, Na3PO4 8.06, with a pH of 7.4.
Compounds of use in the invention (or reference compounds such as N-cyclohexyl-N-[(7,8-dimethyl-2-oxo-1,2-dihydro-3-quinolinyl)methyl]-N-phenylurea) are dissolved in dimethylsulfoxide (DMSO) at a stock concentration of 10 mM. These solutions are further diluted with DMSO using a Biomek FX (Beckman Coulter) in a 384 compound plate. Each dilution (1 μL) is transferred to another compound plate and external solution containing 0.05% pluronic acid (66 μL) is added. […]

Data set [2] can be described thus: Determination of brain tissue binding (equilibrium dialysis). Type of data set: in vitro ADME. Particulars: Sprague Dawley, rat whole brain homogenate, 5 h at 37° C. As to the method: Sprague Dawley rat whole blood, collected on the week of the experiment using K3-EDTA as an anti-coagulant, is diluted with isotonic phosphate buffer 1:1 (v/v). Sprague Dawley rat whole brain, stored frozen at −20° C., is thawed and homogenised in artificial cerebrospinal fluid (CSF) 1:2 (w/v).
An appropriate amount of test compound is dissolved in DMSO to give a 10 millimolar solution. Further dilutions, to obtain a 166.7 micromolar working solution are then prepared using 50% acetonitrile in MilliQ water. This working solution is used to spike the blood to obtain a final concentration of 0.5 micromolar in whole blood. Similarly, the working solution is used to spike brain samples to obtain a final concentration of 5 micromolar in whole brain. From these spiked blood and brain preparations, control samples (n=3), are immediately extracted and used to calculate the initial recovery of the test items.
150 microL of compound-free buffer (isotonic phosphate buffer for blood or artificial CSF buffer for brain) is dispensed in one half-well and 150 microL of spiked matrix (blood or brain) is loaded in the other half-well, with the two halves separated by a semi-permeable membrane. After an equilibration period of 5 h at 37° C., 50 microL of dialysed matrix (blood or brain) is added to 50 microL of corresponding compound-free buffer, and vice-versa for buffer, such that the volume of buffer to matrix (blood or brain) remains the same. Samples are then extracted by protein precipitation with 300 microL of acetonitrile containing rolipram (control for positive ionization mode) or diclofenac (control for negative ionization mode) as internal standards and centrifuged for 10 min at 3000 rpm. Supernatants are collected (100 microL), diluted with 27% AcN in MilliQ water (200 microL) and then injected into an HPLC-MS/MS or UPLC-MS/MS system to determine the concentration of test compound present.
Blood and brain tissue binding are then determined using the following formulas: Afu=Buffer/Blood or Afu=CSF/Brain
Where Afu=apparent fraction unbound; Buffer=analyte/internal standard ratio determined in the buffer compartment; Blood=analyte/internal standard ratio determined in the blood compartment; Brain=analyte/internal standard ratio determined in the brain compartment.
[formula] where: fucr=Fraction unbound corrected; D=matrix dilution factor (D=2 for blood and D=3 for brain).
Then: % Binding=(1−fucr)×100 % Unbound=100−% Bound Brain/Blood Partition Ratio (Kbb) Determination
On the technique in general: In equilibrium dialysis free small molecules cross a membrane that holds back macromolecules.

Each structure is given as a SMILES string. Values joined by “and” are separate entries in the source; they are usually repeats but may differ in a detail not shown here. Identical values can stand only once.

In general, fraction unbound refers to free concentration divided by total concentration. High values mean much free substance, low ones little free substance. On to `CC[C@H]1NC(=O)N(c2cnc(Oc3ccc(C)c4c3C3(CC3)CO4)cn2)C1=O` [Example 9, (5R)-5-ethyl-3-[5-(7-methylspiro[2H-benzofuran-3,1′-cyclopropane]-4-yl)oxypyrazin-2-yl]imidazolidine-2,4-dione], for which, in data set [1], the “Kv3.1 pEC50” value was 5.88 and 5.90; the “Kv3.1 max R %” value is 172% and 146%. The fraction unbound at 5 h, 5 micromolar in data set [2] worked out at 0.03.

Regarding `CC[C@H]1NC(=O)N(c2cnc(Oc3cccc4c3C3(CC3)CO4)cn2)C1=O` [Example 10, (5R)-5-ethyl-3-(5-spiro[2H-benzofuran-3,1′-cyclopropane]-4-yloxypyrazin-2-yl)imidazolidine-2,4-dione], in data set [1], the “Kv3.1 pEC50” value is 5.45 and 5.63; the “Kv3.1 max R %” value was 153% and 147%. For the same molecule, the fraction unbound at 5 h, 5 micromolar in data set [2] is 0.087.

For `Cc1ccc(Oc2ncc(N3C(=O)NC(C)(C)C3=O)cn2)c2c1OCC21CC1` [RE5, reference compound], in data set [1], the “Kv3.1 pEC50” value is given as 5.14 and the “Kv3.1 max R %” value was found to be 158%. Further, the fraction unbound at 5 h, 5 micromolar in data set [2] was 0.051.

For `CC[C@H]1NC(=O)N(c2ccc(Oc3ccc(C)c4c3C3(CC3)CO4)nc2)C1=O` [RE11, reference compound], in data set [1], the “Kv3.1 pEC50” value is given as 6.1 and the “Kv3.1 max R %” value came to 152%. In data set [2], this molecule yielded a fraction unbound at 5 h, 5 micromolar of 0.021.

On to `CC[C@H]1NC(=O)N(c2ccc(Oc3cccc4c3C3(CC3)CO4)nc2)C1=O` [RE13, (5R)-5-ethyl-3-(6-spiro[2H-benzofuran-3,1′-cyclopropane]-4-yloxy-3-pyridyl)imidazolidine-2,4-dione, reference compound], for which, in data set [1], the “Kv3.1 pEC50” value was determined as 6.1 and the “Kv3.1 max R %” value came out at 149%. In data set [2], this molecule came in with a fraction unbound at 5 h, 5 micromolar of 0.062.
